The text below walks through data of patent US9084779B2, “Conjugates of nitroimidazoles and their use as chemotherapeutic agents” (The Johns Hopkins University, priority 2011, dated 2015).

pIC50: −log10 of the molar value. A value given as a limit tells only on which side of the number the result lay.

In test [1] the test system is 786-0 human renal adenocarcinoma cells. Description: MTT cell viability assay, 3 days. Format: cell-based. The following applies: normoxic conditions, 1% DMSO. How it is done:
(§1) Additional cell culture, drug treatment and cell viability assays. HT29 human colorectal carcinoma cells, 786-0 human renal adenocarcinoma cells and Hep3B human hepatocellular carcinoma cells were obtained from ATCC and maintained in culture according to their recommendations. […] After the treatment period viability of the cells was determined with the MTT cell viability assay and dose response curves were generated using the calculated values of the percentage viable cells relative to the vehicle control.
(Tetrazolium dyes change colour on reduction, which living cells bring about.)

Test [2] relates to HT29 human colorectal carcinoma cells. Description: MTT cell viability assay, 3 days. The settings on record: normoxic conditions, 1% DMSO. Format: cell-based. As for the experimental part:
as §1

The test system of test [3] is Hep3B human hepatocellular carcinoma cells. Description: MTT cell viability assay, 3 days. In kind it is cell-based. The settings on record: normoxic conditions, 1% DMSO. How it is done:
as §1

Test [4] deals with HT29 human colorectal carcinoma cells. Description: Cell viability by plating efficiency (colony formation after replating). In kind it is cell-based. The following applies: 40 μM, 48 h, diluted 10,000 fold and replated, colonies stained eight days later. As for the experimental part:
FIG. 6 depicts the plating efficiency of HT29 human colorectal carcinoma cells after treatment with DMSO, 40μ M3n and 40μ M3N-PEG-2NI. HT29 cells were treated for 48 h with 40 μM M3N, 40 μM M3N-PEG-2NI or the DMSO vehicle. At the end of the treatment period, the cells were diluted 10,000 fold and replated. Eight days later colonies were stained with methylene blue.
For the further assessment of cell viability by plating efficiency, cells (2×10^6 cells/100 mm dish) from the human colorectal carcinoma cell line HT29 were treated for 48 hours with 40 μM M3N, 40 μM M3N-PEG-2NI or the DMSO vehicle. At the end of the treatment period, the cells from each dish were released by trypsinization, diluted 10,000 fold and replated into new 100 mm dishes. Eight days later colonies were stained with 0.25% methylene blue in 50% ethanol

For test [5], the system named is LNCaP human prostate cancer cells. The experiment in a line: Western blot analysis of 2-nitroimidazole induced protein adducts in cell culture. The settings on record: 80 μM, 6 hours normoxic then 6 hours hypoxic or normoxic. Format: cell-based. How it is done:
Western blot analysis of 2-nitroimidazole induced protein adducts in LNCaP cell cultures. Exponentially growing LNCaP human prostate cancer cells were treated with DMSO, 80 μM M3N-PEG-2NI or Hypoxyprobe-1 in standard media for 6 hours under normoxic conditions and then under hypoxic or normoxic conditions for additional 6 hours. Afterward the media was aspirated, the cells washed and ice cold RIPA lysis buffer was added and the cells lysed on ice for 15 minutes. The samples were centrifuged and the lysate collected. Cellular proteins in the extracts were analyzed for the presence of protein adducts using standard western blotting technique. The primary antibody was PAb2627 polyclonal antibody (1:200) directed against Hydroxyprobe-1 protein adducts. The secondary antibody was Anti-Rabbit HRP conjugate (1:2000). Detection was by chemiluminescence
(In general: Immunoblotting shows a protein as a band on a membrane.)

The subject of test [6] is subcutaneous LNCaP prostate cancer cell explants. The experiment in a line: Immunofluorescence analysis of 2-nitroimidazole induced protein adducts in mouse tumor explants. The following applies: daily intravenous tail vein injection for three weeks. Format: in vivo, nude mice. How it is done: Immunofluorescence analysis of 2-nitroimidazole induced protein adducts in mouse tumor explants. Nude mice with subcutaneous LNCaP prostate cancer cell explants were administered Hydroxyprobe-1, M3N or M3N-PEG-2NI for three weeks by daily intravenous tail vein injection with an additional injection 3 hours prior to euthanization. Tumors were removed from the euthanized mice by dissection and incubated in 30% sucrose/PBS overnight at 4° C. Excess sucrose was removed and the tissue was incubated in 30% sucrose/PBS:OCT (1:1) for 1 hour at room temperature. Afterward the tissue was frozen in 100% OCT. Frozen sections of […] were prepared and fixed in 4% PFA/PBS for 1 hour at room temperature. The sections were blocked overnight at 4° C. with 5% goat serum/PBS or at room temperature for 1 hour and then incubated with Hydroxyprobe-1 rabbit antiserum (1:200) overnight at 4° C. After three washes with PBS, the secondary antibody, mouse anti rabbit-FITC (1:1000) was added for 1 hour at room temperature. The sections were mounted using Vectashield and fluorescently imaged.

Usually pIC50 stands for −log10 of the IC50, conventionally taken in molar units.

Consider “tri-O-methyl NDGA [Compound M3N, reference compound]”, for which the figures for the pIC50 in test [1], in test [2] and in test [3] were 4.19 to 4.44, less than 4.10 and 4.52 to 4.82, respectively. The “Ability of HT29 cells to replicate after treatment (plating efficiency)” value in test [4] is reported as “able to replicate after treatment”. In test [5], the “Protein adducts by western blot (PAb2627 antibody)” value is “No protein adducts were detected”. The “Protein adducts in tumor sections by immunofluorescence” value in test [6] is recorded as “little evidence of adduct formation”.
